Read-outs that look alike come from different tables or passages of the source.
Legend:
[1] = system: HT-1080 cells (human fibrosarcoma); assay: in vitro invasion assay through matrigel (Transwell); format: cell-based
Description: Razoxane, various bis(hydroxylated)(2,6-dioxopiperazine)s, and various hydrophobic analogs were tested in an in vitro assay for inhibition of tumor cell penetration of a reconstituted basement membrane, matrigel, isolated from the Englegbreth-Holm-Swarm (EHS) tumor (disclosed in Kleinman et al., Biochem. (1982), 24, 6188-6193) first described by Albini et al, Cancer Res. (1987) 47, 3234-3245. An 8 μm pore filter coated with matrigel separates a lower compartment containing a chemoattractant and an upper compartment containing the cells and test compound. In particular, the following compounds were tested: razoxane, (1α, 2α, 4α, 5α)-4,4'-(4,5-dihydroxy-1,2-cyclohexanediyl)bis(2,6-piperazinedione); (1α, 2α, 4β, 5β)-4,4'-(4,5-dihydroxy-1,2-cyclohexanediyl)bis(2,6-piperazinedione);(1β, 2α,4α,5α)-4,4'-(4,5-dihydroxy-1,2-cyclohexanediyl)bis(2,6-piperazinedione); (1β, 2α, 4α,5β)-4,4'-(4,5-dihydroxy-1,2-cyclohexanediyl)bis(2,6piperazinedione); (1α, 2β, 4α,5β)-4,4'-(4,5-dihydroxy-1,2cyclohexanediyl)bis(2,6-piperazinedione); N,N'-cyclohexane-1,2-diylbis[N(2-ethoxy-2-oxoethyl)]glycine; N,N'-4-cyclohexene-1,2-diylbis[N-(2-ethoxy-2-oxoethyl)-glycine ester; (3aα, 5β, 6β, 7aα)-4,4'-(hexahydro-2,2-dimethyl1,3-benzodioxole-5,6-diyl)bis(2,6-piperazinedione); (3aα, 5α, 6α, 7aα)-4,4'-(hexahydro-2,2-dimethyl-1,3-benzodioxole-5,6-diyl)bis(2,6- piperazinedione); (3aα, 5α, 6β, 7aα)-4,4'-(hexahydro-2,2-dimethyl-1,3-benzodioxole-5,6-diyl)bis-2,6- piperazinedione; (3aα, 5β, 6α, 7aβ)-4,4'-(hexahydro-2,2dimethyl-1,3-benzodioxole-5,6-diyl)bis(2,6-piperazinedione); and (3aα, 5α, 6β, 7aβ)-4,4'-(hexahydro-2,2-dimethyl-1,3-benzodioxole-5,6-diyl) bis(2,6piperazinedione). Metastatic cells are able to degrade the basement membrane protein barrier and migrate through the pores of the filter whereas non-metastatic cells remain on the upper surface. The cells that pass to the under side of the filter are then counted under a microscope. […] Variations of this assay have been used to correlate this in vitro invasion with metastatic potential in vivo (Albini et al. (Id.); Hendrix et al. Cancer Letters (1987); 38, 127-247; Repesh L. A., Invasion Metastasis (1989) 9, 192-208 to select for more highly invasive cells (Teranova et al., Proc. Nat. Acad. Sci., (1986), 83, 465, 464; Tullberg et al., Invasion Metastasis, (1989), 9, 13-26; Sefer et al., Biotechniques, (1990), 9, 324-331), and to test compounds for inhibition (Nakajima et al., Cancer Res. (1989), 49, 1698-1756).
This method has been improved to increase the number of assays which may be performed and analyzed per day. In particular, such improvement comprises the use of disposable Transwells (Costar) units described by Repesh et al., Invasion Metastasis, (1989), 9, 192-208, which consist of an 8 μm pore filter attached to an insert that fits in a 24 well culture plate. Matrigel concentration is titrated from zero to complete inhibition of motility of each invasive cell line used in the assay and for each batch of matrigel. The matrigel concentration which yields 50% or greater inhibition of motility in a 6 hr assay (usually from 15 to 50 μg of protein per filter) is chosen for determination of invasion. Motility of cells through the 8 μm filters is not by passive diffusion since the pore size is smaller than the cells, and is determined in the same chamber in the absence of matrigel. Motility is stimulated two-fold by the presence of fibroblast conditioned medium (3T3 cells) as a chemoattractant (data not shown). The cell lines used are HT-1080, a human fibrosarcoma, and MDA-MB-231, a human breast carcinoma (both available from the American Type Tissue Culture). These cell lines express both the 72 kD and the 92 kD collagenase type IV as determined by zymography (data not shown).
For inhibition studies, 5×10^5 cells are plated in 200 μl of DMEM+0.1% BSA+the inhibitor (or appropriate solvent control) into the upper chamber of the Transwell. […]

[2] = target: T1, recombinant human 72 kD type IV collagenase (Oncologix), APMA activated (Homo sapiens, UniProt P08253); assay: gelatinase assay, Example 11; format: biochemical
T1 construct: purchased Oncologix
T1 sequence (P08253 110-660): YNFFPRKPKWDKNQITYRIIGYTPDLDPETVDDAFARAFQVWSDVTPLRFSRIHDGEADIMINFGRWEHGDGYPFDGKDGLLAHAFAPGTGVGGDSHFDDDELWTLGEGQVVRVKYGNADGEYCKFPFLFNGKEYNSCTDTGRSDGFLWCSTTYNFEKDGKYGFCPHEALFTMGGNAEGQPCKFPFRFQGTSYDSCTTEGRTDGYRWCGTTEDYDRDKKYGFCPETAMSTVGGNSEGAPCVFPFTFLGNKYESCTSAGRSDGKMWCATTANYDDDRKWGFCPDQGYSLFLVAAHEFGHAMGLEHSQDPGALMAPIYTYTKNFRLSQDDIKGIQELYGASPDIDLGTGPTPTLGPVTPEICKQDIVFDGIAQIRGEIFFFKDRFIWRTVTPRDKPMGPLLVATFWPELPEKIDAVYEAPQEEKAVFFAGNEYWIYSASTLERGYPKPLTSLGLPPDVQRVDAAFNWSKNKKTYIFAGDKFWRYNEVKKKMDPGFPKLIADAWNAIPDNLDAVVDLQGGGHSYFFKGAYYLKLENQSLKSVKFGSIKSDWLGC
Description: NET-660 Collagen (Rat Type I), N-[Propionate-2-3-^3 H] Propionylated (NEN Dupont) with a specific activity of 0.4 mCi/mg, rat type I Collagen (Sigma), P-aminophenylmercuric acetate, APMA (Sigma), recombinant human 72 kD type IV collagenase (Oncologix) with a specific activity of at least 1000 μg collagen digested/hour/μg enzyme, collagenase buffer (50 mM Tris-HCl, 5 mM CaCl2, 200 mM NaCl, 0.02% Brij-35, pH 7.6), bovine serum albumin (BSA), 250 mM EDTA, and 10% TCA+0.7% tannic acid. The substrate is prepared by mixing the ^3 H collagen with the cold collagen at a 2/3 ratio and diluting in the collagenase buffer. The final assay concentration of the ^3 H collagen is 1% or between 20,000 to 40,000 cpm. Inhibitors are prepared just prior to use by dissolving in DMSO (final assay concentration<1%) or collagenase buffer.
The 72 kD collagenase enzyme is activated with 0.5 mM APMA for 30 min. at 37° C. and 10 ng of enzyme per assay is used. Inhibitors are preincubated with activated enzyme for 2 hours at 37° C. in collagenase buffer. Substrate is then added to enzyme inhibitor mix and the assay is run for 20 min at 37° C. […] Undigested substrate is precipitated with the TCA/tannic acid solution and soluble counts are determined in a scintillation counter.

Structure (SMILES): CC1(C)O[C@H]2C[C@H](N3CC(=O)NC(=O)C3)[C@@H](N3CC(=O)NC(=O)C3)C[C@@H]2O1 (relative stereo) [Compound 80, (3aα, 5β, 6α, 7aβ)-4,4'-(hexahydro-2,2-dimethyl-1,3-benzodioxole-5,6-diyl)bis(2,6-piperazinedione)]
- inhibition at 125 µM ([1]; Homo sapiens, HT-1080, at 125 μM, 6 hour assay, read-out: maximum inhibition of invasion): 62%
- inhibition of invasion ([1]; preliminary screen): inhibit invasion
- effect on cell motility ([1]; preliminary screen, no matrigel): without inhibiting cell motility
- IC50 ([2]; 10 ng enzyme, 2 hours preincubation at 37° C., 20 min assay, 3H collagen substrate, read-out: IC50 for inhibition of the 72 kD collagenase type IV): 1.8 µM

Structure (SMILES): CC(CN1CC(=O)NC(=O)C1)N1CC(=O)NC(=O)C1 (stereo not drawn) [razoxane]
- consistent inhibition of invasion without effect on motility ([1]; from 250 μM to 1 mM): could not be demonstrated
- IC50 [2]: 44 µM
